Key:
Experiment in all cases: relative viability (nuclei count vs DMSO), 5 days (fraction); higher = more cells survive
[1] = compound: COc1cc(-c2nn([C@H]3CC[C@H](N4CCN(C(C)=O)CC4)CC3)c3ncnc(N)c23)ccc1NC(=O)c1cc2ccccc2n1C + Cc1cc(Nc2cc(N3CCN(C)CC3)nc(Sc3ccc(NC(=O)C4CC4)cc3)n2)n[nH]1 [Tozasertib] (partner 0.1 µM)
Summary of the method: (§1)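 Dosing by pin tool came one day after lung cancer cell lines were seeded in 1536-well plates, using either one drug or a fixed anchor-drug dose plus five library-drug doses (not always all listed) in √10 steps. After 5 days, nuclei were counted on 4× images. Relative viability is treated-well nuclei count divided by vehicle-well nuclei count, and values are medians of duplicate plates.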

[2] = compound: COc1cc(-c2nn([C@H]3CC[C@H](N4CCN(C(C)=O)CC4)CC3)c3ncnc(N)c23)ccc1NC(=O)c1cc2ccccc2n1C + COc1cc2c(Oc3ccc(NC(=O)C4(C(=O)Nc5ccc(F)cc5)CC4)cc3F)ccnc2cc1OCCCN1CCOCC1 [Foretinib] (partner 0.25 µM)
Summary of the method: as §1

[3] = compound: COc1cc(-c2nn([C@H]3CC[C@H](N4CCN(C(C)=O)CC4)CC3)c3ncnc(N)c23)ccc1NC(=O)c1cc2ccccc2n1C + N=C(N)NC(=N)NCCc1ccccc1 [Phenformin] (partner 250 µM)
Summary of the method: as §1

[4] = compound: CO[C@@H]1[C@H](N(C)C(=O)c2ccccc2)C[C@H]2O[C@]1(C)n1c3ccccc3c3c4c(c5c6ccccc6n2c5c31)C(=O)NC4 [Midostaurin] + CS(=O)(=O)N1CCN(Cc2cc3nc(-c4cccc5[nH]ncc45)nc(N4CCOCC4)c3s2)CC1 [Pictilisib] (partner 1 µM)
Summary of the method: as §1

[5] = compound: COc1cc(-c2nn([C@H]3CC[C@H](N4CCN(C(C)=O)CC4)CC3)c3ncnc(N)c23)ccc1NC(=O)c1cc2ccccc2n1C + Nc1nc2[nH]cc(CCc3ccc(C(=O)N[C@@H](CCC(=O)O)C(=O)O)cc3)c2c(=O)[nH]1 [Pemetrexed] (partner 0.2 µM)
Summary of the method: as §1

For UMC-11, which relative viability ([1]; first compound 0.0128 µM) is on record?
Its relative viability is 0.225.

And the relative viability ([1]; first compound 0.04048 µM)?
Its relative viability is 0.19.

And the relative viability ([1]; first compound 0.128 µM)?
Its relative viability is 0.197.

What about the relative viability ([1]; first compound 1.28 µM) of the same cell line?
The relative viability was 0.193.

And the relative viability ([2]; first compound 0.0128 µM)?
Its relative viability is 0.967.

And the relative viability ([2]; first compound 0.04048 µM)?
The relative viability was 1.07.

What about the relative viability ([2]; first compound 0.128 µM) of the same cell line?
The relative viability was 0.943.

And the relative viability ([2]; first compound 1.28 µM)?
The relative viability was 0.806.

And the relative viability ([3]; first compound 0.0128 µM)?
The relative viability was 0.285.

And the relative viability ([3]; first compound 0.04048 µM)?
Its relative viability is 0.336.

And the relative viability ([3]; first compound 0.128 µM)?
The relative viability was 0.311.

What about the relative viability ([3]; first compound 1.28 µM) of the same cell line?
Its relative viability is 0.279.

And the relative viability ([4]; first compound 0.01 µM)?
Its relative viability is 0.859.

What about the relative viability ([4]; first compound 0.03162 µM) of the same cell line?
Its relative viability is 0.602.

And the relative viability ([4]; first compound 0.1 µM)?
The relative viability was 0.871.

And the relative viability ([4]; first compound 0.3162 µM)?
The relative viability was 0.663.

What about the relative viability ([5]; first compound 0.0128 µM) of the same cell line?
Its relative viability is 0.694.

And the relative viability ([5]; first compound 0.04048 µM)?
The relative viability was 0.865.

And the relative viability ([5]; first compound 0.128 µM)?
Its relative viability is 0.809.

And the relative viability ([5]; first compound 1.28 µM)?
Its relative viability is 0.576.
